Measurements as given in patent publication US8119805B2, “Substituted disulfonamide compounds” (Gruenenthal GmbH, priority 2008, dated 2012).
Counter-ions that a name gives are not always drawn.

Columns and labels:
[1] = target: T1, B1R receptor of the rat (rB1R) (Rattus norvegicus, UniProt P97583); test: Functional investigation on the bradykinin 1 receptor (B1R), FLIPR Ca2+ assay, rB1R cells; assay type: cell-based; details: test substance 10 μM; CHO K1 cells transfected with rat B1R gene; Fluo-4 Ca2+ signal; agonist Des-Arg9-bradykinin at EC80; % of maximum achievable inhibition; read-out: B1R antagonism, rat [10 μM] % inhibition
T1 construct: expressed in transfected cells; host or cells: CHO K1 cells
T1 sequence (P97583 1-337): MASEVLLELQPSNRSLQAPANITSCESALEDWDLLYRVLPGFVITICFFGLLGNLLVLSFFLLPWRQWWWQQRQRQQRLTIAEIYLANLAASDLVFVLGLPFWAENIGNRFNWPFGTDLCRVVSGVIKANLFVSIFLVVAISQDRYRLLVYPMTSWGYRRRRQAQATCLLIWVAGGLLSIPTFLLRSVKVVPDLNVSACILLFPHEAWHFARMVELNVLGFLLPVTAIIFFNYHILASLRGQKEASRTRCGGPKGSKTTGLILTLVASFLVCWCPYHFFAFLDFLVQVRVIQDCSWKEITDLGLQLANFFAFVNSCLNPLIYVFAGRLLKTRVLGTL
Summary of the method: (§1)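 CHO K1 cells stably expressing human or rat B1R, Fluo-4 loaded, read by FLIPR (λex 488, λem 540 nm). Test compound (10 μM) first gave % activation against Lys-Des-[MUT]-bradykinin ≥50 nM (hB1R) or Des-[MUT]-bradykinin 10 μM (rB1R). After 10–20 min, agonist at EC80 was added; % inhibition or IC50 from concentration series, n=2–3, N≥2.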

[2] = target: T2, human B1R receptor (hB1R) (Homo sapiens, UniProt P46663); test: Functional investigation on the bradykinin 1 receptor (B1R), FLIPR Ca2+ assay, hB1R cells; assay type: cell-based; details: test substance 10 μM; CHO K1 cells transfected with human B1R gene; Fluo-4 Ca2+ signal; agonist Lys-Des-Arg9-bradykinin at EC80; % of maximum achievable inhibition; read-out: B1R antagonism, human [10 μM] % inhibition
T2 construct: expressed in transfected cells; host or cells: CHO K1 cells
T2 sequence (P46663 1-353): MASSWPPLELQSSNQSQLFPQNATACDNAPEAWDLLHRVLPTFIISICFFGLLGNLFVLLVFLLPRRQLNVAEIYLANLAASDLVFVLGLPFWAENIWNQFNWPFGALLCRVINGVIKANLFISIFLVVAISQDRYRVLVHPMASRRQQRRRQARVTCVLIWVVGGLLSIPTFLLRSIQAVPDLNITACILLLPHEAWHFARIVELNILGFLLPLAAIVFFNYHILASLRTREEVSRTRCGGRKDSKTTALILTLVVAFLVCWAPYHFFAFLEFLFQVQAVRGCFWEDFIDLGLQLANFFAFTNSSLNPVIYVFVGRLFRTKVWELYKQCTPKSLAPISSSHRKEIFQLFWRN
Summary of the method: as §1

SMILES	inhibition at 10 µM [1] [%]	inhibition at 10 µM [2] [%]
Cc1cc(S(=O)(=O)N2CCC[C@H]2CCCS(=O)(=O)N2[C@@H]3CC[C@H]2C[C@H](Oc2ccncc2)C3)c(C)cc1Cl [Example 61, (1R,3R,5S)-8-(3-((S)-1-(4-Chloro-2,5-dimethylphenylsulfonyl)pyrrolidin-2-yl)propylsulfonyl)-3-(pyridin-4-yloxy)-8-azabicyclo[3.2.1]octane]	97	75
COc1cc(C)c(S(=O)(=O)N2CCC[C@H]2CCCS(=O)(=O)N2[C@@H]3CC[C@H]2C[C@H](Oc2ccncc2)C3)c(C)c1 [Example 54, (1R,3R,5S)-8-(3-((S)-1-(4-Methoxy-2,6-dimethylphenylsulfonyl)pyrrolidin-2-yl)propylsulfonyl)-3-(pyridin-4-yloxy)-8-azabicyclo[3.2.1]octane]	98	100
O=S(=O)(CCC1CCN(S(=O)(=O)c2cccc(Cl)c2Cl)C1)N1CCC(CCN2CCCC2)CC1 (stereo not shown) [Example 17, 1-(2-(1-(2,3-Dichlorophenylsulfonyl)pyrrolidin-3-yl)ethylsulfonyl)-4-(2-(pyrrolidin-1-yl)ethyl)piperidine hydrochloride]	12	58
CN1CCC(N2CCN(S(=O)(=O)CC3CCCCN3S(=O)(=O)c3cccc(C(F)(F)F)c3)CC2)CC1 (stereo not shown) [Example 37, 1-(1-Methylpiperidin-4-yl)-4-((1-(3-(trifluoromethyl)phenylsulfonyl)piperidin-2-yl)methylsulfonyl)piperazine]	40	53
COc1cc(C)c(S(=O)(=O)N2c3ccccc3CC2CCCS(=O)(=O)N2CCC(O)(c3cccnc3)CC2)c(C)c1 (stereo not shown) [Example 44, 1-(3-(1-(4-Methoxy-2,6-dimethylphenylsulfonyl)indolin-2-yl)propylsulfonyl)-4-(pyridin-3-yl)piperidin-4-ol]	105	82
COc1cc(C)c(S(=O)(=O)N2CCC(CCS(=O)(=O)N3CCN(c4ccncc4)CC3)C2)c(C)c1C (stereo not shown) [Example 22, 1-(2-(1-(4-Methoxy-2,3,6-trimethylphenylsulfonyl)pyrrolidin-3-yl)ethylsulfonyl)-4-(pyridin-4-yl)piperazine]	95	103
O=S(=O)(CCC1CCN(S(=O)(=O)c2cc(Cl)c(Cl)cc2Cl)C1)N1CCC(CCN2CCCC2)CC1 (stereo not shown) [Example 18, 4-(2-(Pyrrolidin-1-yl)ethyl)-1-(2-(1-(2,4,5-trichlorophenylsulfonyl)pyrrolidin-3-yl)ethylsulfonyl)piperidine hydrochloride]	11	65
Cc1cc(S(=O)(=O)N2CCC(CCS(=O)(=O)N3CCC(CCN4CCCC4)CC3)C2)c(C)cc1Cl (stereo not shown) [Example 19, 1-(2-(1-(4-Chloro-2,5-dimethylphenylsulfonyl)pyrrolidin-3-yl)ethylsulfonyl)-4-(2-(pyrrolidin-1-yl)ethyl)piperidine]	13	77
Cc1cccc(Cl)c1S(=O)(=O)N1CCC[C@H]1CCCS(=O)(=O)N1CCN(C2CCN(C)CC2)CC1 [Example 27, (S)-1-(3-(1-(2-Chloro-6-methylphenylsulfonyl)pyrrolidin-2-yl)propylsulfonyl)-4-(1-methylpiperidin-4-yl)piperazine]	93	108
COc1cc(C)c(S(=O)(=O)N2CCC(CCS(=O)(=O)N3CCC(CCN4CCCC4)CC3)C2)c(C)c1C (stereo not shown) [Example 16, 1-(2-(1-(4-Methoxy-2,3,6-trimethylphenylsulfonyl)pyrrolidin-3-yl)ethylsulfonyl)-4-(2-(pyrrolidin-1-yl)ethyl)piperidine hydrochloride]	13	97

Further lines, results first:

inhibition at 10 µM [1] [%]	inhibition at 10 µM [2] [%]	SMILES
95	95	O=S(=O)(CCC[C@@H]1CCCN1S(=O)(=O)c1cccc2c(Cl)cccc12)N1CCC2(CCN(c3ccncc3)CC2)CC1 [Example 76, 3-(3-((S)-1-(5-Chloronaphthalen-1-ylsulfonyl)pyrrolidin-2-yl)propylsulfonyl)-9-(pyridin-4-yl)-3,9-diazaspiro[5.5]undecane]
95	95	COc1cc(C)c(S(=O)(=O)N2CCC[C@H]2CCCS(=O)(=O)N2CCC(Oc3ccncc3)CC2)c(C)c1 [Example 47, (S)-4-(1-(3-(1-(4-Methoxy-2,6-dimethylphenylsulfonyl)pyrrolidin-2-yl)propylsulfonyl)piperidin-4-yloxy)pyridine]
71	58	O=S(=O)(CCC[C@@H]1CCCN1S(=O)(=O)c1cccc2ccccc12)N1CCC(Oc2ccncc2)CC1 [Example 50, (S)-4-(1-(3-(1-(Naphthalen-1-ylsulfonyl)pyrrolidin-2-yl)propylsulfonyl)piperidin-4-yloxy)pyridine]
103	100	COc1cc(C)c(S(=O)(=O)N2CCC[C@H]2CCCS(=O)(=O)N2CCC3(CCN(c4ccncc4)C3)C2)c(C)c1 (stereo partly drawn) [Example 82, 2-(3-((S)-1-(4-Methoxy-2,6-dimethylphenylsulfonyl)pyrrolidin-2-yl)propylsulfonyl)-7-(pyridin-4-yl)-2,7-diazaspiro[4.4]nonane]
97	81	COc1ccc(S(=O)(=O)N2CCC[C@H]2CCCS(=O)(=O)N2CCC3(CCN(c4ccncc4)CC3)CC2)c2ccccc12 [Example 77, 3-(3-((S)-1-(4-Methoxynaphthalen-1-ylsulfonyl)pyrrolidin-2-yl)propylsulfonyl)-9-(pyridin-4-yl)-3,9-diazaspiro[5.5]undecane]
86	74	Cc1cc(S(=O)(=O)N2CCC[C@H]2CCCS(=O)(=O)N2CCC(Oc3ccncc3)CC2)c(C)cc1Cl [Example 53, (S)-4-(1-(3-(1-(4-Chloro-2,5-dimethylphenylsulfonyl)pyrrolidin-2-yl)propylsulfonyl)piperidin-4-yloxy)pyridine]
73	97	O=S(=O)(CCC1CCN(S(=O)(=O)c2cccc(Cl)c2Cl)C1)N1CCN(c2ccncc2)CC1 (stereo not shown) [Example 21, 1-(2-(1-(2,3-Dichlorophenylsulfonyl)pyrrolidin-3-yl)ethylsulfonyl)-4-(pyridin-4-yl)piperazine hydrochloride]
99	80	Cc1cccc(Cl)c1S(=O)(=O)N1CCC[C@H]1CCCS(=O)(=O)N1CCC(Oc2ccncc2)CC1 [Example 46, (S)-4-(1-(3-(1-(2-Chloro-6-methylphenylsulfonyl)pyrrolidin-2-yl)propylsulfonyl)piperidin-4-yloxy)pyridine]
104	99	Cc1cccc(Cl)c1S(=O)(=O)N1CCC[C@H]1CCCS(=O)(=O)N1CCC2(CCN(c3ccncc3)C2)C1 (stereo partly drawn) [Example 83, 2-(3-((S)-1-(2-Chloro-6-methylphenylsulfonyl)pyrrolidin-2-yl)propylsulfonyl)-7-(pyridin-4-yl)-2,7-diazaspiro[4.4]nonane]
48	56	CN1CCC(N2CCN(S(=O)(=O)CCC[C@@H]3CCCN3S(=O)(=O)c3cccc4ccccc34)CC2)CC1 [Example 30, (S)-1-(1-Methylpiperidin-4-yl)-4-(3-(1-(naphthalen-1-ylsulfonyl)pyrrolidin-2-yl)propylsulfonyl)piperazine]
45	38	O=S(=O)(CCC[C@@H]1CCCN1S(=O)(=O)c1c(Cl)cc(C(F)(F)F)cc1Cl)N1CCC(Oc2ccncc2)CC1 [Example 72, (S)-4-(1-(3-(1-(2,6-Dichloro-4-(Trifluoromethyl)phenylsulfonyl)pyrrolidin-2-yl)propylsulfonyl)piperidin-4-yloxy)pyridine]
75	81	O=S(=O)(CCC[C@@H]1CCCN1S(=O)(=O)c1ccccc1C(F)(F)F)N1CCC(Oc2ccncc2)CC1 [Example 48, (S)-4-(1-(3-(1-(2-(Trifluoromethyl)phenylsulfonyl)pyrrolidin-2-yl)propylsulfonyl)piperidin-4-yloxy)pyridine]
96	77	O=S(=O)(CCC[C@@H]1CCCN1S(=O)(=O)c1ccc(Cl)c2ccccc12)N1CCC2(CCN(c3ccncc3)CC2)CC1 [Example 79, 3-(3-((S)-1-(4-Chloronaphthalen-1-ylsulfonyl)pyrrolidin-2-yl)propylsulfonyl)-9-(pyridin-4-yl)-3,9-diazaspiro[5.5]undecane]
